Experimental findings from paper PMC12748989 (Nature Communications, 2025) are described below.

SMILES strings stand for the structures.

Test [1] deals with MDA-MB-231 cells.
In test [2] the test system is PBMC. The note with it: 12.5 µM.

In the case of `CC[C@H](C)[C@H](N)C(=O)N[C@@H](CC(N)=O)C(=O)N[C@@H](CC(C)C)C(=O)N[C@@H](CCCCN)C(=O)N[C@@H](C)C(=O)N[C@@H](CC(N)=O)C(=O)N[C@@H](C)C(=O)N[C@@H](C)C(=O)N[C@@H](CC(C)C)C(=O)N[C@@H](C)C(=O)N[C@@H](CCCCN)C(=O)N[C@@H](CCCCN)C(=O)N[C@H](C(=O)N[C@@H](CC(C)C)C(N)=O)[C@@H](C)CC` [N6], in test [1], the “Average (percentage cell inhibition), Dmastoparan MDA-MB231 12.5uM” value is listed as 7.402%. For the same molecule, the “Average (percentage cell inhibition), Mastoparan PBMC” value in test [2] is 6.768%.

In the case of `CC[C@H](C)[C@H](N)C(=O)N[C@@H](CC(N)=O)C(=O)N[C@@H](CC(C)C)C(=O)N[C@@H](CCCCN)C(=O)N[C@@H](C)C(=O)N[C@@H](CC(C)C)C(=O)N[C@@H](C)C(=O)N[C@@H](C)C(=O)N[C@@H](CC(C)C)C(=O)N[C@@H](C)C(=O)N[C@@H](CCCCN)C(=O)N[C@H](C(=O)N[C@H](C(=O)N[C@@H](CC(C)C)C(N)=O)[C@@H](C)CC)[C@@H](C)O` [T12], in test [1], the “Average (percentage cell inhibition), Dmastoparan MDA-MB231 12.5uM” value amounted to 27.1643%. Further, in test [2], the “Average (percentage cell inhibition), Mastoparan PBMC” value was determined as 10.5164%.

In the case of `CC[C@H](C)[C@H](NC(=O)[C@H](CCCCN)NC(=O)[C@H](CCCCN)NC(=O)[C@H](C)NC(=O)[C@H](CC(C)C)NC(=O)[C@H](C)NC(=O)[C@H](C)NC(=O)[C@H](CC(C)C)NC(=O)[C@H](C)NC(=O)[C@H](CCCCN)NC(=O)[C@H](CC(C)C)NC(=O)[C@H](CC(N)=O)NC(=O)[C@@H](N)Cc1ccc(O)cc1)C(=O)N[C@@H](CC(C)C)C(N)=O` [Y1], the “Average (percentage cell inhibition), Dmastoparan MDA-MB231 12.5uM” value in test [1] came to 48.2987%. Moreover, the “Average (percentage cell inhibition), Mastoparan PBMC” value in test [2] was 14.8394%.

With `CC[C@H](C)[C@H](N)C(=O)N[C@@H](CC(N)=O)C(=O)N[C@@H](CC(N)=O)C(=O)N[C@@H](CCCCN)C(=O)N[C@@H](C)C(=O)N[C@@H](CC(C)C)C(=O)N[C@@H](C)C(=O)N[C@@H](C)C(=O)N[C@@H](CC(C)C)C(=O)N[C@@H](C)C(=O)N[C@@H](CCCCN)C(=O)N[C@@H](CCCCN)C(=O)N[C@H](C(=O)N[C@@H](CC(C)C)C(N)=O)[C@@H](C)CC` [N3], the “Average (percentage cell inhibition), Dmastoparan MDA-MB231 12.5uM” value in test [1] is 47.2847%. Also, the “Average (percentage cell inhibition), Mastoparan PBMC” value in test [2] was -0.8054%.

For `CC[C@H](C)[C@H](N)C(=O)N[C@@H](CC(N)=O)C(=O)N[C@@H](CC(C)C)C(=O)N[C@@H](CCCCN)C(=O)N[C@@H](C)C(=O)N[C@@H](CC(C)C)C(=O)N[C@@H](C)C(=O)N[C@@H](C)C(=O)NCC(=O)N[C@@H](C)C(=O)N[C@@H](CCCCN)C(=O)N[C@@H](CCCCN)C(=O)N[C@H](C(=O)N[C@@H](CC(C)C)C(N)=O)[C@@H](C)CC` [G9], the “Average (percentage cell inhibition), Dmastoparan MDA-MB231 12.5uM” value in test [1] was determined as 11.2187%. Also, the “Average (percentage cell inhibition), Mastoparan PBMC” value in test [2] turned out to be 7.302%.

`CC[C@H](C)[C@H](N)C(=O)N[C@@H](CC(N)=O)C(=O)N[C@@H](CC(C)C)C(=O)N[C@@H](CCCCN)C(=O)N[C@@H](C)C(=O)N[C@@H](CC(C)C)C(=O)N[C@@H](C)C(=O)N[C@@H](C)C(=O)N[C@@H](CC(C)C)C(=O)N[C@@H](C)C(=O)N[C@@H](CO)C(=O)N[C@@H](CCCCN)C(=O)N[C@H](C(=O)N[C@@H](CC(C)C)C(N)=O)[C@@H](C)CC` [S11]: the “Average (percentage cell inhibition), Dmastoparan MDA-MB231 12.5uM” value in test [1] is listed as 28.2862%. The “Average (percentage cell inhibition), Mastoparan PBMC” value in test [2] came out at 3.714%.

With `CC[C@H](C)[C@H](N)C(=O)N[C@@H](CC(N)=O)C(=O)N[C@@H](CC(C)C)C(=O)N[C@@H](CCCCN)C(=O)N[C@@H](C)C(=O)N[C@@H](CC(C)C)C(=O)N[C@@H](C)C(=O)N[C@@H](C)C(=O)N[C@@H](Cc1c[nH]c2ccccc12)C(=O)N[C@@H](C)C(=O)N[C@@H](CCCCN)C(=O)N[C@@H](CCCCN)C(=O)N[C@H](C(=O)N[C@@H](CC(C)C)C(N)=O)[C@@H](C)CC` [W9], the “Average (percentage cell inhibition), Dmastoparan MDA-MB231 12.5uM” value in test [1] was found to be 26.5648%. For the same molecule, the “Average (percentage cell inhibition), Mastoparan PBMC” value in test [2] was 6.531%.

On to `CC[C@H](C)[C@H](NC(=O)[C@H](CCCCN)NC(=O)[C@H](CCCCN)NC(=O)[C@H](C)NC(=O)[C@H](CC(C)C)NC(=O)[C@H](C)NC(=O)[C@H](C)NC(=O)[C@H](CC(C)C)NC(=O)[C@H](C)NC(=O)[C@H](CCCCN)NC(=O)[C@H](CC(C)C)NC(=O)[C@H](CC(N)=O)NC(=O)[C@@H](N)CCC(=O)O)C(=O)N[C@@H](CC(C)C)C(N)=O` [E1], for which the “Average (percentage cell inhibition), Dmastoparan MDA-MB231 12.5uM” value in test [1] amounted to 25.5598%. Further, the “Average (percentage cell inhibition), Mastoparan PBMC” value in test [2] amounted to 8.369%.

For the molecule `CC[C@H](C)[C@H](N)C(=O)N[C@@H](CC(N)=O)C(=O)N[C@@H](CC(C)C)C(=O)N[C@@H](CCCCN)C(=O)N[C@@H](C)C(=O)N[C@@H](CC(C)C)C(=O)N[C@@H](C)C(=O)N[C@@H](C)C(=O)N[C@@H](CC(N)=O)C(=O)N[C@@H](C)C(=O)N[C@@H](CCCCN)C(=O)N[C@@H](CCCCN)C(=O)N[C@H](C(=O)N[C@@H](CC(C)C)C(N)=O)[C@@H](C)CC` [N9], the “Average (percentage cell inhibition), Dmastoparan MDA-MB231 12.5uM” value in test [1] is given as 3.242%. Also, the “Average (percentage cell inhibition), Mastoparan PBMC” value in test [2] worked out at 3.083%.

As for `CC[C@H](C)[C@H](N)C(=O)N[C@@H](CC(N)=O)C(=O)N[C@@H](CC(C)C)C(=O)N[C@@H](CCCCN)C(=O)N[C@@H](C)C(=O)N[C@@H](CC(C)C)C(=O)N[C@@H](C)C(=O)N[C@@H](C)C(=O)N[C@@H](CC(C)C)C(=O)N[C@@H](C)C(=O)N[C@@H](CCCCN)C(=O)N[C@@H](CCCCN)C(=O)N[C@H](C(=O)N[C@@H](C)C(N)=O)[C@@H](C)CC` [A14], the “Average (percentage cell inhibition), Dmastoparan MDA-MB231 12.5uM” value in test [1] is 12.3553%. Besides, the “Average (percentage cell inhibition), Mastoparan PBMC” value in test [2] turned out to be 6.423%.

As to `CC[C@H](C)[C@H](N)C(=O)N[C@@H](CC(N)=O)C(=O)N[C@@H](CC(C)C)C(=O)N[C@@H](CCCCN)C(=O)N[C@@H](C)C(=O)N[C@@H](CC(C)C)C(=O)N[C@@H](C)C(=O)N[C@@H](C)C(=O)N[C@@H](CC(C)C)C(=O)N[C@@H](C)C(=O)N[C@@H](CCCNC(=N)N)C(=O)N[C@@H](CCCCN)C(=O)N[C@H](C(=O)N[C@@H](CC(C)C)C(N)=O)[C@@H](C)CC` [R11], the “Average (percentage cell inhibition), Dmastoparan MDA-MB231 12.5uM” value in test [1] is 37.1061%. The “Average (percentage cell inhibition), Mastoparan PBMC” value in test [2] is reported as 5.503%.

As for `CC[C@H](C)[C@H](N)C(=O)N[C@@H](CC(N)=O)C(=O)N[C@@H](CC(C)C)C(=O)N[C@@H](CCCCN)C(=O)N[C@@H](C)C(=O)N[C@@H](CC(C)C)C(=O)N[C@@H](C)C(=O)N[C@@H](CCC(N)=O)C(=O)N[C@@H](CC(C)C)C(=O)N[C@@H](C)C(=O)N[C@@H](CCCCN)C(=O)N[C@@H](CCCCN)C(=O)N[C@H](C(=O)N[C@@H](CC(C)C)C(N)=O)[C@@H](C)CC` [Q8], in test [1], the “Average (percentage cell inhibition), Dmastoparan MDA-MB231 12.5uM” value was 46.0978%. Moreover, in test [2], the “Average (percentage cell inhibition), Mastoparan PBMC” value is recorded as 5.553%.

Turning to `CC[C@H](C)[C@H](NC(=O)[C@H](CCCCN)NC(=O)[C@H](CCCCN)NC(=O)[C@H](C)NC(=O)[C@H](CC(C)C)NC(=O)[C@H](C)NC(=O)[C@H](C)NC(=O)[C@H](CC(C)C)NC(=O)[C@H](C)NC(=O)[C@H](CCCCN)NC(=O)[C@H](CC(C)C)NC(=O)[C@H](CC(N)=O)NC(=O)[C@@H](N)CCC(N)=O)C(=O)N[C@@H](CC(C)C)C(N)=O` [Q1], the “Average (percentage cell inhibition), Dmastoparan MDA-MB231 12.5uM” value in test [1] came out at 44.2177%. The “Average (percentage cell inhibition), Mastoparan PBMC” value in test [2] turned out to be 13.6421%.

In the case of `CC[C@H](C)[C@H](N)C(=O)N[C@@H](CC(N)=O)C(=O)N[C@@H](CC(C)C)C(=O)N[C@@H](CCCCN)C(=O)N[C@@H](C)C(=O)N[C@@H](CC(C)C)C(=O)N[C@@H](C)C(=O)N[C@@H](C)C(=O)N[C@@H](CC(C)C)C(=O)N[C@@H](C)C(=O)N[C@@H](CCCCN)C(=O)N[C@@H](CCCCN)C(=O)NCC(=O)N[C@@H](CC(C)C)C(N)=O` [G13], in test [1], the “Average (percentage cell inhibition), Dmastoparan MDA-MB231 12.5uM” value is recorded as 23.4491%. The “Average (percentage cell inhibition), Mastoparan PBMC” value in test [2] amounted to 6.832%.

Consider `CC[C@H](C)[C@H](N)C(=O)N[C@@H](CC(N)=O)C(=O)N[C@@H](CC(C)C)C(=O)N[C@@H](CCC(=O)O)C(=O)N[C@@H](C)C(=O)N[C@@H](CC(C)C)C(=O)N[C@@H](C)C(=O)N[C@@H](C)C(=O)N[C@@H](CC(C)C)C(=O)N[C@@H](C)C(=O)N[C@@H](CCCCN)C(=O)N[C@@H](CCCCN)C(=O)N[C@H](C(=O)N[C@@H](CC(C)C)C(N)=O)[C@@H](C)CC` [E4], for which the “Average (percentage cell inhibition), Dmastoparan MDA-MB231 12.5uM” value in test [1] is 27.9326%. Moreover, the “Average (percentage cell inhibition), Mastoparan PBMC” value in test [2] is given as 5.1636%.

With `CC[C@H](C)[C@H](N)C(=O)N[C@@H](CC(N)=O)C(=O)N[C@@H](CC(C)C)C(=O)N[C@@H](CCCCN)C(=O)N[C@@H](C)C(=O)N[C@@H](CC(C)C)C(=O)N[C@@H](C)C(=O)N[C@@H](C)C(=O)N[C@H](C(=O)N[C@@H](C)C(=O)N[C@@H](CCCCN)C(=O)N[C@@H](CCCCN)C(=O)N[C@H](C(=O)N[C@@H](CC(C)C)C(N)=O)[C@@H](C)CC)C(C)C` [V9], in test [1], the “Average (percentage cell inhibition), Dmastoparan MDA-MB231 12.5uM” value was determined as 43.1794%. For the same molecule, the “Average (percentage cell inhibition), Mastoparan PBMC” value in test [2] is reported as 10.0305%.

With `CC[C@H](C)[C@H](N)C(=O)N[C@@H](CC(N)=O)C(=O)N[C@@H](CC(C)C)C(=O)N[C@@H](CCCCN)C(=O)N[C@@H](C)C(=O)N[C@@H](CC(C)C)C(=O)N[C@@H](C)C(=O)N[C@@H](C)C(=O)N[C@H](C(=O)N[C@@H](C)C(=O)N[C@@H](CCCCN)C(=O)N[C@@H](CCCCN)C(=O)N[C@H](C(=O)N[C@@H](CC(C)C)C(N)=O)[C@@H](C)CC)[C@@H](C)CC` [I9], in test [1], the “Average (percentage cell inhibition), Dmastoparan MDA-MB231 12.5uM” value is 25.9927%. Further, the “Average (percentage cell inhibition), Mastoparan PBMC” value in test [2] is given as 12.8506%.

`CC[C@H](C)[C@H](N)C(=O)N[C@@H](CO)C(=O)N[C@@H](CC(C)C)C(=O)N[C@@H](CCCCN)C(=O)N[C@@H](C)C(=O)N[C@@H](CC(C)C)C(=O)N[C@@H](C)C(=O)N[C@@H](C)C(=O)N[C@@H](CC(C)C)C(=O)N[C@@H](C)C(=O)N[C@@H](CCCCN)C(=O)N[C@@H](CCCCN)C(=O)N[C@H](C(=O)N[C@@H](CC(C)C)C(N)=O)[C@@H](C)CC` [S2]: the “Average (percentage cell inhibition), Dmastoparan MDA-MB231 12.5uM” value in test [1] worked out at 39.9159%. The “Average (percentage cell inhibition), Mastoparan PBMC” value in test [2] turned out to be 20.6714%.

Take `CC[C@H](C)[C@H](N)C(=O)N[C@@H](CC(N)=O)C(=O)N[C@H](C(=O)N[C@@H](CCCCN)C(=O)N[C@@H](C)C(=O)N[C@@H](CC(C)C)C(=O)N[C@@H](C)C(=O)N[C@@H](C)C(=O)N[C@@H](CC(C)C)C(=O)N[C@@H](C)C(=O)N[C@@H](CCCCN)C(=O)N[C@@H](CCCCN)C(=O)N[C@H](C(=O)N[C@@H](CC(C)C)C(N)=O)[C@@H](C)CC)C(C)C` [V3]: the “Average (percentage cell inhibition), Dmastoparan MDA-MB231 12.5uM” value in test [1] turned out to be 35.8976%. The “Average (percentage cell inhibition), Mastoparan PBMC” value in test [2] is recorded as -4.825%.
